Consider 17 compounds from PubChem BioAssay (NCI).

Test in all cases: growth of human tumour cells (NCI), 48 h
In assay [1] the test system is CAKI-1 renal.
Assay [2] relates to RPMI-8226 leukemia.
Assay [3] concerns EKVX NSCLC.
Assay [4] relates to UACC-257 melanoma.
For assay [5], the system named is OVCAR-8 ovarian.
Assay [6] relates to RXF 393 renal.
The subject of assay [7] is IGROV1 ovarian.
Assay [8] concerns U251 CNS.
Assay [9] relates to COLO 205 colon.
Assay [10] has as its system HCC-2998 colon.

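All cell lines were grown in 96-well plates and treated with compound for 48 hours. GI50 = concentration required for 50% inhibition of growth. TGI: total growth inhibition.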

As for `Nc1ccc(-c2cc(C(=O)Nc3nccs3)[nH]c(=S)n2)cc1`, the TGI in [1], in [2], in assay [3], in assay [4], in [5] and in [6] was over 100 µM in each case. The TGI in assay [7], in assay [8] and in assay [9] was over 100 µM throughout.

Consider `O=C(O)c1cc2ccccc2c2c3c(ccc12)OCO3`, for which the GI50 is 185 µM in [1]; 139 µM in assay [2]; 220 µM in [4]; 186 µM in assay [5]; 146 µM in assay [6]; 201 µM in [7]. The GI50 is 134 µM in assay [8], 171 µM in assay [9] and 225 µM in assay [10]. The TGI is 761 µM in [1]; 738 µM in assay [2]; 600 µM in [4]; 717 µM in assay [5]; 342 µM in assay [6]; 738 µM in assay [7]. Also, the TGI in assay [8] was determined as 478 µM; in assay [9], 368 µM; in assay [10] it was 763 µM.

Turning to `CCCCC(C)/C=C/C(=O)C1=C(O)/C(=C/C(=O)O)OC1=O` (stereo not drawn), the TGI in [2], in assay [3], in assay [4], in assay [5], in assay [7] and in [8] was over 100 µM in each case. Moreover, in [9], the TGI is over 100 µM.

In the case of `COC(=O)c1cccc2c3ccccc3c3ccccc3c12`, the TGI is over 100 µM in assay [1]; over 100 µM in assay [3]; over 100 µM in assay [4]; 58.2 µM in assay [5]; 71.3 µM in assay [6]; over 100 µM in assay [7]. Moreover, the TGI was 73.6 µM in [8], 31.7 µM in [9] and over 100 µM in assay [10].

`CCc1cccc(C(C)C)c1NC(=O)CCl`: the TGI in assay [1], in assay [2], in assay [3], in assay [4], in assay [7] and in assay [8] was over 100 µM each time.

With `NCCCOc1cc2ccccc2cc1C(=O)Nc1ccc(Cl)cc1OC(=O)c1cc2ccccc2cc1OCCCN`, the GI50 in [1] is 1.4 µM; in [4], 1.01 µM; in assay [6], 0.61 µM; in assay [9] it was 1.27 µM; in assay [10], 1.43 µM. The TGI in [1] was found to be 4.12 µM; in assay [4] it was 2.32 µM; in assay [6] it was 1.69 µM; in assay [9], 2.63 µM; in [10], 2.82 µM.

As for `CC1(C)CCCC2(C)C3C(O)CC2(C)C(O)C31` (stereo not drawn), the TGI in assay [3], in [4], in [5], in assay [6], in assay [7] and in assay [8] was over 100 µM each time. Besides, the TGI in assay [9] and in assay [10] was over 100 µM in each case.

Turning to `Nc1nonc1-c1nc2ccccc2n1Cc1ccc(F)cc1`, the GI50 is 3.48 µM in [1]; over 100 µM in [4]; over 100 µM in assay [5]; 4.42 µM in assay [6]; 5.25 µM in [7]; 7.48 µM in assay [8]. In addition, in assay [9], the GI50 is 5.02 µM. Moreover, the TGI in [1], in assay [4], in [5], in assay [6], in assay [7] and in assay [8] was over 100 µM in each case. This compound also registered a TGI in assay [9] of over 100 µM.

Take `N#CC1=C(N)NC(=S)NC1c1ccc(-c2ccc(-c3nc4ccccc4o3)cc2)s1` (stereo not drawn): the GI50 in assay [1] was 10.1 µM; in assay [2] it was 16 µM; in assay [3] it was 14 µM; in [4], 11.2 µM; in [5] it was 10.1 µM; in assay [7], 2.21 µM. Further, the GI50 in assay [8] was 7.73 µM; in assay [9], 11.3 µM. For the same compound, the TGI in assay [1] was 36.4 µM; in assay [2], over 50 µM; in [3], 48.2 µM; in assay [4], 26.8 µM; in [5], 22.4 µM; in assay [7], 12.7 µM. Also, the TGI in assay [8] was 14.4 µM; in assay [9], 33.4 µM.

Regarding `CNC(=O)c1cc(Oc2cccc3nc(NC(=O)Nc4cc(C(F)(F)F)cc(C(F)(F)F)c4)ccc23)ccn1`, the GI50 in assay [1] is 10.1 µM; in [3] it was 4.46 µM; in [4], 13.2 µM; in [5], 5.09 µM; in assay [6], 3.03 µM; in assay [8], 2.47 µM. For the same compound, the GI50 was 10.8 µM in assay [9] and 15.5 µM in assay [10]. Further, the TGI in assay [1] worked out at 57.3 µM; in assay [3], 86.3 µM; in assay [4] it was 44.1 µM; in [5], 26.8 µM; in assay [6], 9.48 µM; in assay [8], 6.27 µM. The figures for the TGI in assay [9] and in [10] were 23.8 µM and over 100 µM, respectively.

As for `O=S(=O)(NCCNc1nccc(-c2c(-c3ccc(F)c(O)c3)nc3sccn23)n1)c1ccc(Cl)cc1`, the GI50 is 1.99 µM in assay [1]; 2.19 µM in assay [3]; 2.53 µM in [4]; 2.18 µM in assay [5]; 0.651 µM in assay [6]; 1.45 µM in assay [7]. Moreover, the GI50 in assay [8] is 3.81 µM; in assay [10], 2.93 µM. Further, the TGI is 10.4 µM in assay [1]; over 50 µM in assay [3]; over 50 µM in [4]; 36.7 µM in assay [5]; 4.7 µM in assay [6]; over 50 µM in assay [7]. Moreover, the TGI in assay [8] is 16 µM; in assay [10] it was over 50 µM.

As for `CCN(CC)c1c(-c2ccccc2)n[nH]c1C(=O)OC`, the GI50 in [1] is 25.8 µM; in assay [2] it was 14.6 µM; in assay [3], 21.2 µM; in assay [4], 12.6 µM; in [5], 15.5 µM; in [6], 21.9 µM. Moreover, the GI50 in [7] was 50.8 µM; in [8], 25.2 µM; in [9], 17.7 µM. Moreover, the TGI is 55.5 µM in assay [1]; 38.4 µM in [2]; 56.8 µM in assay [3]; 36.5 µM in assay [4]; 44.9 µM in [5]; 56.9 µM in assay [6]. The TGI in [7] was over 100 µM; in assay [8], 66.4 µM; in [9], 64 µM.

For `CC(=O)Oc1ccc2c(c1)[C@@]1(C)CCCC(C)(C)[C@@H]1CC2`, the GI50 was 28 µM in assay [1]; 12.1 µM in assay [2]; 26 µM in [3]; 18.2 µM in [4]; 18.8 µM in [5]; 41.2 µM in [6]. Moreover, the GI50 was 49.4 µM in assay [7], 19.9 µM in assay [8] and 21.9 µM in assay [9]. For the same compound, the TGI in assay [1] was over 100 µM; in [2], 30.3 µM; in assay [3], 62.1 µM; in assay [4] it was 43.6 µM; in [5], 41.6 µM; in assay [6] it was 86.3 µM. Also, the TGI in assay [7] is over 100 µM; in assay [8], 35 µM; in assay [9] it was 53.6 µM.

On to `[N-]=[N+]=NCCCn1c2c(c3ccc([N+](=O)[O-])cc3c1=O)C(=O)c1cc3c(cc1-2)OCO3`, for which the GI50 in assay [1] was under 0.01 µM; in [3] it was 0.379 µM; in assay [4], 0.495 µM; in assay [5], under 0.0446 µM; in assay [6], 0.39 µM; in assay [7] it was 0.165 µM. Moreover, the GI50 is under 0.0174 µM in [8] and 0.585 µM in assay [9]. The TGI was under 0.0152 µM in assay [1]; 3.62 µM in [3]; 15.2 µM in [4]; 16.6 µM in [5]; 40.3 µM in assay [6]; 1.46 µM in [7]. For the same compound, the TGI is 1.04 µM in assay [8] and over 100 µM in [9].

As to `CN(C)CCC(/C=C/c1ccccc1)=N\Nc1ccc(Cl)c(Cl)c1`, the TGI in [1] came to 7.03 µM; in [2] it was 9.53 µM; in assay [3] it was 13.1 µM; in [4], 9.77 µM; in [5] it was 7.8 µM; in assay [6], 9.05 µM. Also, the TGI was found to be 10.1 µM in assay [7], 13.6 µM in assay [8] and 7.23 µM in [9].

For `Cc1coc2c1C(=O)C(=O)c1ccccc1-2`, the TGI in [1] is 3.63 µM; in [4], 0.542 µM; in assay [5] it was 1.25 µM; in assay [6], 3.12 µM; in [7], 3.44 µM; in assay [8], 2.97 µM. The compound further had a TGI in assay [10] of 3.35 µM.

`CC(C)(C)c1cc(C(=O)Nc2ccc(C(=O)NCCN)cc2)cc(C(C)(C)C)c1`: the GI50 in [1] was 15.5 µM; in [3], 2.04 µM; in assay [4] it was 17.7 µM; in assay [5], 3.39 µM; in [6], 1.68 µM; in assay [8], 1.91 µM. The GI50 in [9] was 1.85 µM; in [10], 1.69 µM. Further, the TGI in [1] was determined as 32.9 µM; in assay [3], 14.5 µM; in assay [4], 37.4 µM; in assay [5], 10.9 µM; in assay [6] it was 3.16 µM; in assay [8], 3.88 µM. Besides, the values for the TGI in [9] and in assay [10] were 3.77 µM and 3.18 µM, respectively.
